The source of these data is patent US10327447B2, “Phosphonate functional antimicrobial coatings for metal surfaces” (NANO SAFE COATINGS INCORPORATED, priority 2013, dated 2019).

For series [1], the system named is Escherichia coli. As to the kind of experiment: Minimum inhibitory concentration determination. The class given is cell-based. As to conditions: 1% stock solution in H2O, stabilized or no stabilizer. The method, then:
(§1) Solutions of phosphonate antimicrobials (0.01 g/mL or 1%) were dissolved in H2O or ethanol, inoculated with the test organism and serially diluted from 10^−1-10^−3, representing a dilution range from 0.01 g/mL to 0.00001 g/mL, followed by plate counts to determine the minimum inhibitory concentration (MIC) values. Test organisms included gram-positive and gram-negative bacterial strains: Staphylococcus aureus, Listeria monocytogenes, Salmonella interiditis, and Escherichia coli.
(§2) Sample 1 was a 1% solution of compound 3; sample 2 was 1% solution of the sodium salt of compound 3; sample 3 was a 1% solution of compound 3 prepared by HCl dealkylation of N-(3-diisopropoxyphosphorylpropyl)-N,N-dimethyloctadecan-1-ammonium bromide.

For series [2], the system named is Listeria monocytogenes. As to the kind of experiment: Minimum inhibitory concentration determination. The class given is cell-based. As to conditions: 1% stock solution in H2O, stabilized or no stabilizer. The method, then:
as §1, §2

For another series, the system named is Salmonella interiditis. Nature of the series: Minimum inhibitory concentration determination. It counts as cell-based. As to conditions: 1% stock solution in H2O, stabilized or no stabilizer. How it is done: as §1, §2
In a further series the test system is bacterial strains. As to conditions: strain not stated; cited from earlier work.
Series [3] relates to Escherichia coli. Nature of the series: Contact killing on treated stainless steel coupons (large droplet inoculation). The class given is cell-based. As to conditions: for change in colony forming units (cfu): in as little as four hours.
Series [4] relates to Staphylococcus aureus. Nature of the series: Minimum inhibitory concentration determination. The class given is cell-based. An excerpt: Test organisms included gram-positive and gram-negative bacterial strains: Staphylococcus aureus, Listeria monocytogenes, Salmonella interiditis, and Escherichia coli.
The test system of series [5] is Arthrobacter. Nature of the series: Contact killing on treated stainless steel coupons (large droplet inoculation). It counts as cell-based. The conditions noted are these: in as little as four hours.
The next series concerns Pseudomonas sp. CT07. The series is described as above. The class given is cell-based. The conditions noted are these: in as little as four hours.
The test system of the next series is Klebsiella pneumonia. The series is described as above. It counts as cell-based. As to conditions: in as little as four hours.
The test system of series [6] is Staphylococcus aureus. The description is as above. It counts as cell-based. As to conditions: in as little as four hours.
Series [7] concerns Listeria monocytogenes. Described as above. It counts as cell-based.
Another series deals with Pseudomonas PA01. The description is as above. It counts as cell-based, Pseudomonas aeruginosa PA01. The conditions noted are these: in as little as four hours.
A further series relates to Salmonella enteriditis. Described as above. It counts as cell-based. The conditions noted are these: in as little as four hours.
A further series has as its system S. aureus. As to the kind of experiment: Contact killing on treated titanium coupons. The class given is cell-based. As to conditions: after three hours of drying on the titanium surface. The method, then: (§3) A one inch by inch TiO2 square was sanded with 600 grain size sand paper, followed by an ethanol (EtOH) rinse. Samples were stored in a 120° C. oven prior to use. A 10 mM solution of compound 3 in EtOH was aerosol spayed onto the TiO2 square, allowed to air dry and placed into 120° C. oven overnight to anneal the compound followed by an EtOH rinse. Spaying, annealing and rinsing were repeated two more times.
(§4) The following bacteria were tested: Pseudomonas sp. CT07, Salmonella enteriditis, Klebsiella pneumonia, Listeria monocytogenes, Arthrobacter, Staphylococcus aureus, Pseudomonas aeruginosa PA01 and Escherichia coli. The preparation of the inoculant was performed by growing overnight cultures (10^5-10^8 cfu/ml) in 10% tryptic soy broth at room temperature and with agitation. The cells were then washed from the broth by using a centrifuge at 9000×g for 2 minutes. This step was performed to remove a nutrition source for the bacteria during the test phase.
(§5) Stainless steel coupons were treated by overnight immersion in a 1% ethanolic solution (aqueous solutions may also be used) of antimicrobial phosphonate and an overnight cure at 100° C. Untreated control (“C”), compound 2 (“S1”), compound 3 (“S2”) and Bio-Protect® AM500 silicone quaternary ammonium salt (N-(3-(trimethoxy)silylpropyl)-N,N-dimethyloctadecan-1-ammonium chloride) treated (“BSC”) stainless steel coupons were then inoculated with 0.1 mL of the overnight bacterial inoculant and were then placed in a fumehood to allow the samples to dry for 2 hours. After the appropriate time lapse the coupons were then placed into a 10 mL tube of sterile 0.9% saline and vigorously vortexed for a minute to remove the adherent cells. A dilution series was made from this solution and the series was plated onto 10% tryptic soy agar plates for enumeration. This was again repeated after 4 hours, 6 hours and 24 hours of drying.
(§6) Titanium metal coupons were treated similarly as above and tested for antibacterial activity against Salmonella and S. aureus.

A further series has as its system Salmonella. Nature of the series: Contact killing on treated titanium coupons. It counts as cell-based. As to conditions: after three hours of drying on the titanium surface. How it is done: as §3, §4, §5, §6
Series [8] has as its system Arthrobacter. As to the kind of experiment: Antimicrobial surface treatment durability (retest after saline storage). It counts as cell-based. The conditions noted are these: treated titanium coupons stored in saline for 24 hours, washed, dried, re-innoculated. How it is done: Titanium metal coupons treated with compound 2 as in Example 28 were further tested for surface treatment durability. The treated coupons were stored in saline for 24 hours from the first antimicrobial trial, removed, dried, washed with distilled H2O, dried re-innoculated with Arthrobacter and retested.

The test system of the next series is P. aeroguinosa. Nature of the series: Agar testing of treated titanium coupons. The class given is cell-based. The conditions noted are these: titanium coupons affixed to agar petri dishes; control fully colonized. An excerpt:
The titanium coupon samples were subjected to agar testing in which the samples were affixed to agar petri dishes and inoculated with P. aeroguinosa.

Bounds are passed on as bounds.

`CCCCCCCCCCCCCCCCCC[N+](C)(C)CCCP(=O)(OC(C)C)OC(C)C.[Br-]` registered a melting point of 54 to 55 °C.
For `CCCCCCCCCCCCCCCCCC[N+](C)(C)CCC[Si](OC)(OC)OC.[Cl-]` [BSC, N-(3-(trimethoxy)silylpropyl)-N,N-dimethyloctadecan-1-ammonium chloride], the “concentration at which strain was inhibited” value with Escherichia coli [1] was ≤ 100 µg/mL; with Listeria monocytogenes [2] it was ≤ 100 µg/mL; with Salmonella interiditis, ≤ 100 µg/mL; in the series on Staphylococcus aureus [4] (1% stock solution in H2O, stabilized or no stabilizer), ≤ 100 µg/mL. In the series on bacterial strains, the “literature MIC values” was 84 µg/mL. The “time to eradication compared to the four hours of S1/S2” value in the series with Escherichia coli [3] is “took longer”.
With `CCCCCCCCCCCCCCCCCC[N+](C)(C)CCCP(=O)(O)O` [compound 3, N-(3-phosphonopropyl)-N,N-dimethyloctadecan-1-ammonium Bromide], the melting point lay in the range of 118 to 120 °C. In addition, the “change in colony forming units (cfu)” value with Arthrobacter [5] is listed as “eradication”. For the same compound, the “change in colony forming units (cfu)” value in the series on Pseudomonas sp. CT07 was “eradication”. Moreover, in the series on Klebsiella pneumonia, the “change in colony forming units (cfu)” value was “eradication”. Besides, the “change in colony forming units (cfu)” value in the series with Staphylococcus aureus [6] is recorded as “eradication”. The “antibacterial activity compared to BSC” value with Listeria monocytogenes [7] was “comparable antibacterial activity”. In addition, the “change in colony forming units (cfu)” value in the series with Pseudomonas PA01 is on record as “eradication”. The “change in colony forming units (cfu)” value with Salmonella enteriditis was “eradication”. The “change in colony forming units (cfu)” value in the series on Escherichia coli [3] is “eradication”. For the same compound, the “bacterial colonies (cfu) on treated titanium surface” value (from here on “bacterial colonies (cfu)”) in the series on S. aureus is given as “eradication”. For the same compound, in the series with Salmonella, the “bacterial colonies (cfu)” value is listed as “eradication”.
Turning to `CCCCCCCCCCCCCCCCCC[N+](C)(C)CCCP(=O)(OCC)OCC.[Br-]` [compound 2, N-(3-diethoxyphosphorylpropyl)-N,N-dimethyloctadecan-1-ammonium Bromide], the “change in colony forming units (cfu)” value was “eradication” in the series with Arthrobacter [5]; “eradication” with Pseudomonas sp. CT07; “eradication” in the series on Klebsiella pneumonia; “eradication” in the series on Staphylococcus aureus [6]; “completely eradicated” with Listeria monocytogenes [7] (after 24 hours); “eradication” in the series with Pseudomonas PA01. Moreover, the “change in colony forming units (cfu)” value with Salmonella enteriditis and in the series on Escherichia coli [3] was “eradication” throughout. Moreover, the colony reductions with Arthrobacter [8] is on record as 10^6 to 0. Further, the “visible colonies around or on the samples” value in the series with P. aeroguinosa is reported as “no visible colonies”. In addition, the “antibacterial activity compared to BSC” value with Listeria monocytogenes [7] is given as “comparable antibacterial activity”. The “inhibition of S. aureus” value with Staphylococcus aureus [4] (1% solution, even at 100 μg/mL concentrations) was “highly inhibitory”. The “bacterial colonies (cfu)” value in the series on S. aureus and in the series with Salmonella was “significant reduction of bacterial colonies” each time.

One may read the melting point as the temperature, or range, at which the solid turns liquid.
